# Laboratory results reported in ChEMBL document CHEMBL4513161, “CO-ADD screening of MMV (CH) - Pandemic Response Box” (2021).
# Legend:
# Klebsiella pneumoniae = assay: microbe, parasite or virus in culture; details: ATCC 700603, 18 h, ASSAY_TEST Inhibition of Bacterial Growth, detection method Absorption (OD600), MEDIA CAMHB, plate type 384well, NBS, CORNING #3640
# Description: Antibacterial activity against Klebsiella pneumoniae MDR ATCC 70063 (CO-ADD:GN_003); MIC in CAMBH media using NBS plates, by OD(600)
# HEK293 = assay: cells; assay type: functional, Homo sapiens, ATCC CRL1573; details: Homo sapiens, ATCC CRL1573, HEK293; ASSAY_TEST Inhibition of Cell Viability; detection method Resazurin; Fluorescence (ex560/em590); MEDIA DMEM with 10% FBS; plate type 384well; TC; CORNING #3712; time 18 hr; read-out: CC50
# Acinetobacter baumannii = assay: microbe, parasite or virus in culture; details: ATCC 19606, 18 h, ASSAY_TEST Inhibition of Bacterial Growth, detection method Absorption (OD600), MEDIA CAMHB, plate type 384well, NBS, CORNING #3640
# Description: Antibacterial activity against Acinetobacter baumannii ATCC 19606 (CO-ADD:GN_034); MIC in CAMBH media using NBS plates, by OD600
# Escherichia coli = assay: microbe, parasite or virus in culture; details: ATCC 25922, 18 h, ASSAY_TEST Inhibition of Bacterial Growth, detection method Absorption (OD600), MEDIA CAMHB, plate type 384well, NBS, CORNING #3640
# Description: Antibacterial activity against Escherichia coli ATCC 25922 (CO-ADD:GN_001); MIC in CAMBH media using NBS plates, by OD(600)
# Pseudomonas aeruginosa [1] = assay: microbe, parasite or virus in culture; details: ATCC 27853, 18 h, ASSAY_TEST Inhibition of Bacterial Growth, detection method Absorption (OD600), MEDIA CAMHB, plate type 384well, NBS, CORNING #3640
# Description: Antibacterial activity against Pseudomonas aeruginosa ATCC 27853 (CO-ADD:GN_042); MIC in CAMBH media using NBS plates, by OD(600)
# Pseudomonas aeruginosa [2] = assay: Antibacterial activity against Pseudomonas aeruginosa PAO397 [PAO1 d(mexAB-oprM) d(mexCD-oprJ) d(mexEF-oprN) d(mexJKL) d(mexXY) d(opmH)] (CO-ADD:GN_211); MIC in CAMBH media using NBS plates, by OD(600); assay type: functional; details: ASSAY_TEST Inhibition of Bacterial Growth, detection method Absorption (OD600), MEDIA CAMHB, plate type 384well, CORNING #3640, time 18 hr
# Staphylococcus aureus = assay: microbe, parasite or virus in culture; details: ATCC 43300, 18 h, ASSAY_TEST Inhibition of Bacterial Growth, detection method Absorption (OD600), MEDIA CAMHB, plate type 384well, NBS, CORNING #3640
# Description: Antibacterial activity against Staphylococcus aureus MRSA ATCC 43300 (CO-ADD:GP_020); MIC in CAMBH media, using NBS plates, by OD(600)
# Candida albicans = assay: microbe, parasite or virus in culture; details: ATCC 90028, ASSAY_TEST Inhibition of Fungal Growth, detection method Absorption (OD530), plate type 384well, NBS, CORNING #3640
# Description: Antifungal activity against Candida albicans ATCC 90028 (CO-ADD:FG_001); MIC in YNB media using NBS plates, by OD630
# Description for Cryptococcus neoformans: Antifungal activity against Cryptococcus neoformans H99 ATCC 208821 (CO-ADD:FG_002); MIC in YNB media using NBS plates, by Resazurin OD(600-570)
SMILES,MIC (Klebsiella pneumoniae) [µM],CC50 (HEK293) [µM],MIC (Acinetobacter baumannii) [µM],MIC (Escherichia coli) [µM],MIC (Cryptococcus neoformans) [µM],MIC (Pseudomonas aeruginosa [1]) [µM],MIC (Pseudomonas aeruginosa [2]) [µM],MIC (Staphylococcus aureus) [µM],MIC (Candida albicans) [µM]
COC(=O)Nc1nc2c(C)cccc2[nH]1,> 20,> 20,> 20,> 20,> 20,> 20,> 20,> 20,> 20
N#Cc1c(F)c(Cl)c(NCc2ccccc2)c(C#N)c1F,> 20,5.16,> 20,> 20,> 20,> 20,> 20,5,> 20
Fc1ccc(-n2cc(Cn3c(-c4cccc(F)c4)nc4ccccc43)nn2)cc1,> 20,> 20,> 20,> 20,> 20,> 20,> 20,> 20,> 20
N[C@H](CCC(=O)N[C@@H](Cc1c[nH]c2ccccc12)C(=O)O)C(=O)O [GOLOTIMOD],> 20,> 20,> 20,> 20,> 20,> 20,> 20,> 20,> 20
Nc1cc(-c2nc3ccccc3[nH]2)n[nH]c1=O,> 20,> 20,> 20,> 20,> 20,> 20,> 20,> 20,> 20
COc1ccc(-n2cnc3cc(NCc4ccco4)ccc32)cc1,> 20,> 20,> 20,> 20,> 20,> 20,> 20,> 20,> 20
CCCCCCC1c2ccc(O)cc2Oc2cc(O)ccc21,> 20,> 20,> 20,> 20,> 20,> 20,> 20,> 20,> 20
O=C(Nc1cccc(C2=NCCN2)c1)c1ccc(-c2ccc(C(=O)Nc3cccc(C4=NCCN4)c3)cc2)cc1,> 20,> 20,> 20,2.5,> 20,> 20,5,0.625,> 20
CC(C)C(=O)N[C@H]1[C@H]([C@H](O)[C@H](O)CO)OC(C(=O)O)=C[C@@H]1N=[N+]=[N-],> 20,> 20,> 20,> 20,> 20,> 20,> 20,> 20,> 20
CCc1cc(O)c(Oc2cccnc2N)cc1F,20,> 20,> 20,1.25,> 20,2.5,> 20,1.25,> 20
COc1ccc2nc(-c3ccccc3)cc(O)c2c1,> 20,2.85,> 20,> 20,> 20,> 20,> 20,> 20,> 20
O=C(NCc1ccc2c3c(cccc13)C(=O)N2)c1cccs1,> 20,> 20,> 20,> 20,> 20,> 20,> 20,> 20,> 20
Cc1cc(NS(=O)(=O)c2ccc(-c3ccc(F)cc3F)cc2)no1,> 20,> 20,> 20,> 20,> 20,> 20,> 20,> 20,> 20
CN1CCN(Cc2ccc(-c3cnc4[nH]cc(-c5ccc6[nH]ccc6c5)c4c3)cc2)CC1,> 20,5.33,> 20,> 20,> 20,> 20,> 20,> 20,> 20
NC[C@H]1O[C@H](O[C@H]2[C@H](O)[C@@H](O[C@H]3O[C@H](CO)[C@@H](O)[C@H](N)[C@H]3O)[C@H](N)C[C@@H]2N)[C@H](N)C[C@@H]1O [TOBRAMYCIN],> 20,> 20,2.5,2.5,> 20,20,1.25,> 20,> 20
CC[C@@H](CO)NCCN[C@@H](CC)CO [ETHAMBUTOL],> 20,> 20,> 20,> 20,> 20,> 20,> 20,> 20,> 20
NCc1ccc(S(N)(=O)=O)cc1 [MAFENIDE],> 20,> 20,> 20,> 20,> 20,> 20,> 20,> 20,> 20
O=C(O)COc1cccc2c1CC[C@](O)(COC(=O)N(c1ccccc1)c1ccccc1)C2,> 20,> 20,> 20,> 20,> 20,> 20,> 20,> 20,> 20
Nc1nc(C(F)(F)F)cc2c1[nH]c(=O)n2Cc1ccccc1,> 20,> 20,> 20,> 20,> 20,> 20,> 20,> 20,> 20
O=C(Nc1ccc(-c2ccccc2)cc1)C1=C(O)C(Cc2ccccc2)OC1=O (configuration not stated),> 20,> 20,> 20,> 20,> 20,> 20,> 20,> 20,> 20
O=S(=O)(Nc1ccccc1)c1ccc(NC(=S)Nc2ccccc2)cc1,> 20,> 20,> 20,> 20,> 20,> 20,> 20,> 20,> 20
C[N+]1(C)CCCC(OC(=O)C(O)(c2ccccc2)c2ccccc2)C1 (configuration not stated) [MEPENZOLATE BROMIDE],> 20,> 20,> 20,> 20,> 20,> 20,> 20,> 20,> 20
CNCC(=O)OCc1cccnc1N(C)C(=O)OC(C)[n+]1cnn(C[C@](O)(c2cc(F)ccc2F)[C@@H](C)c2nc(-c3ccc(C#N)cc3)cs2)c1 (some centres not stated) [ISAVUCONAZONIUM],> 20,> 20,> 20,> 20,2.5,> 20,> 20,> 20,≤ 0.156
Nc1nc(-c2ccccc2)nc2c1ncn2[C@@H]1O[C@H](COS(=O)(=O)NC(=O)c2ccccc2O)[C@@H](O)[C@H]1O,> 20,> 20,> 20,> 20,> 20,> 20,> 20,> 20,> 20
CC(C)(C)c1cc(CCC(=O)N2CCC2)cc(C(C)(C)C)c1O,> 20,> 20,> 20,> 20,> 20,> 20,> 20,> 20,> 20
Cc1oncc1C(=O)Nc1ccc(C(F)(F)F)cc1 [LEFLUNOMIDE],> 20,> 20,> 20,> 20,> 20,> 20,> 20,> 20,> 20
COc1c(NC(=O)[C@H]2CC[C@@H](COc3ccc([N+](=O)[O-])cc3)CC2)c(F)cc2c(=O)c(C(=O)O)cn(C3CC3)c12,> 20,> 20,> 20,> 20,> 20,> 20,> 20,20,> 20
O=C(NNC(=S)Nc1ccc(Cl)cc1)c1ccncc1,> 20,> 20,> 20,> 20,> 20,> 20,> 20,> 20,> 20
